Results on one molecule are retold here after patent US10849865B2, “Method of reducing neuronal cell death with haloalkylamines” (THE UNIVERSITY OF MONTANA, priority 2013, dated 2020).

The subject of data set [1] is rat hippocampal slice cultures exposed to oxygen-glucose deprivation (OGD). Put plainly: Rat hippocampal slice culture oxygen-glucose deprivation (RHSC-OGD) model, propidium iodide staining. The class given is cell-based. Here is the method:
All experimental animal procedures were approved by the University of Montana Institutional Animal Care and Use Committee in accordance with National Institutes of Health guide for the care and use of Laboratory animals (NIH Publications No. 8023). Hippocampal slice cultures were prepared from the brains of 7-day-old Sprague-Dawley rat pups as previously described (Selkirk et al., 2005, Eur J Neur 21:2291). After 7 days in culture, slices were exposed to oxygen-glucose deprivation (OGD). A glucose free balanced salt solution (BSS) composed of 120 mM NaCl, 5 mM KCl, 1.25 mM NaH2PO4, 2 mM MgSO4, 2 mM CaCl2, 25 mM NaHCO3, 20 mM HEPES, 25 mM sucrose; pH 7.3 was bubbled for one hour with 5% CO2/95% N2 at 10 L/hour. Slices were washed 6 times in deoxygenated SBSS to remove residual glucose, transferred into deoxygenated SBSS, and placed in a 37° C. chamber (Pro-Ox) with an oxygen feedback sensor that maintained gas levels at 0.1% O2, 5% CO2, 94.4% Nitrogen for 60 min. After OGD, the slices were immediately transferred back into pre-warmed Neurobasal media (containing B27 without anti-oxidants) under normal oxygen conditions. […] Neuronal damage was determined by staining slices with propidium iodide (PI; Molecular Probes, Eugene, Oreg.) and quantifying the relative fluorescence intensity (excitation 540/emission 630) using ImagePro Plus software (Media Cybernetics, Silver Springs, Md.). Propidium iodide […] was added to the media at a concentration of 2 μM (Noraberg et al., 1999, Brain Research Protocols 3:278), 4 hours prior to OGD. Images were taken of the hippocampal slices prior to OGD to establish baseline fluorescence. After OGD, slices were placed in normal media containing 2 μM PI and imaged again at 24 hours post-OGD using fluorescence optics with an Olympus IMT-2 microscope and a Hamamatsu camera. The total fluorescent intensity in each slice was determined using ImagePro Plus software (Media Cybernetics, Silver Springs, Md.) and all values were expressed as the percent change from untreated slices exposed to OGD.

The test system of data set [2] is rat lateral fluid percussion injury (LFP) model of severe TBI. In words: Neurological severity scoring (NSS) after severe TBI (lateral fluid percussion). The class given is in vivo. Here is the method: Assessments were conducted on days 1, 7, 14, 21, and 30 by a blinded observer. Animals were scored from 0-16 with 0 indicating no impairment, and 16 indicating maximal impairment. Scoring criteria for a severe TBI was 16-10, a moderate TBI was 9-5 and a mild TBI was 4-1. Animals scoring and NSS of 9 or less on day 1 were identified as having a moderate/mild injury and were excluded.
(§1) We selected the test dose for phenoxybenzamine based on current FDA approved levels. […] Assuming a typical adult weighs 70 kg, this represents 1.7 mg/kg body weight. Therefore, we selected a slightly lower, single, intravenous dose of 1 mg/kg body weight. This dose was administered at the clinically relevant time point of 8 hours after severe TBI. Therapeutic effectiveness was determined based on behavioral and cognitive outcomes.

Data set [3] shares this test system. Put plainly: Foot fault assessment after severe TBI (lateral fluid percussion). In kind it is in vivo. How it is done:
Briefly, rats were set on an elevated grid. With each weight-bearing step, the paw may fall or slip off the wire grid. Each time the left forelimb (affected by damage to the right hemisphere) missed a placement on the wire rack it was recorded as a foot fault. The total number of steps (movement of each forelimb) that the rat used to cross the grid was counted, and the total numbers of foot faults for each forelimb was recorded.
as §1

Data set [4] has the same test system. Put plainly: Morris water maze (MWM) cognitive function after severe TBI. In kind it is in vivo. How it is done: The Morris water maze (MWM) was used to assess the impact of phenoxybenzamine on cognitive function (learning and memory) following TBI. […] Pre-acclimation began on day 24 post-TBI. The training phase began on day 25 post-injury, and the probe trial was conducted on day 30 post-injury.

The subject of data set [5] is α-1 and α-2 adrenergic receptors. Particulars: with secondary α-2 antagonism; cited from earlier work.
For a further data set, the system named is α-1 receptors. The note with it: 8 days after a single administration; cited from earlier work.
Data set [6] has as its system α-1 and α-2 adrenergic receptors. Particulars: following intravenous administration; cited from earlier work.
For data set [7] the following is noted: stuffy nose, mild drowsiness, blurred vision, and upset stomach; cited from earlier work.
For another data set, the target named is calmodulin (CaM)/CaMKII (Homo sapiens, UniProt P0DP23). The note with it: cited from earlier work.
The subject of a further data set is CCL2. Put plainly: Gene array analysis of cortical tissue after severe TBI: CCL2. The note with it: 32 hours after the injury (treatment at 8 hours + 24 hours); versus uninjured controls.
Another data set deals with IL-1β. In words: Gene array analysis of cortical tissue after severe TBI: IL-1β. The note with it: 32 hours after the injury (treatment at 8 hours + 24 hours); versus uninjured controls.
A further data set has as its system MyD88. In words: Gene array analysis of cortical tissue after severe TBI: MyD88. Particulars: 32 hours after the injury (treatment at 8 hours + 24 hours); versus uninjured controls.
The mark [8] stands for this setting: 1 mg/kg body weight, over 30 days after TBI.
Where [9] appears, read: 1 mg/kg i.v. 8 hours after severe TBI, 24 hours or 7 days after the TBI.
[10] abbreviates: administered 8 hours after TBI, probe trial day 30 post-injury.

Entries after “also recorded” stand apart in the source; their conditions may differ.

Text for CCL2: (§2) For experiments requiring TBI, a rat model was used. Male Wistar rats (350-500 g) were obtained from Charles River Laboratories (Wilmington, Mass.) and housed with a 12-hour light/dark cycle and ad libitum access to food and water. Severe TBI was induced using the lateral fluid percussion (LFP) procedure as previously described (Rau et al., 2012, J Trauma and Acute Care Surgery 73:S165). Briefly, a 5 mm trephination was made over the right hemisphere equidistant from the lambda and the bregma. Animals were given a fluid pulse to the brain at 1.9-2.3 atm of pressure for 20 msec. All animals experienced apnea and were manually ventilated until normal breathing occurred. […] Saline treated animals underwent the same tail vein injection procedure receiving only pre-warmed saline.
(§3) This time point was chosen in an effort to detect possible gene changes that would affect the development of secondary damage.
Text for IL-1β: as §2, §3
Text for MyD88: as §2, §3

As for `CC(COc1ccccc1)N(CCCl)Cc1ccccc1` (stereo not shown) [phenoxybenzamine], the “prevention of neuronal death from OGD (propidium iodide fluorescence)” value in data set [1] (100 μM added at 2, 4, and 8 hours post-OGD) is “prevented neuronal death from OGD in all regions of the hippocampus”. Further, in [1] (100 μM added at 16 hours post-OGD), the “prevention of neuronal death from OGD (propidium iodide fluorescence)” value is “prevented neuronal death only in the CA1 region of the hippocampus”. In addition, the “neuroprotection when delivered after OGD (FIG. 2)” value in [1] (delivered up to 16 hours after OGD) was “significant neuroprotection”. For the same molecule, the “behavioral function, neurological severity score (FIG. 3A)” value in data set [2] (setting [8]) was “significantly improved behavioral function”. Also, the “NSS, difference from saline treated animals” value in data set [2] (setting [9]) is on record as “no significant differences”. Besides, in data set [3] (setting [8]), the “behavioral function, foot fault assessments (FIG. 3B)” value was “significantly improved behavioral function”. Further, the “foot fault scoring, difference from saline treated animals” value in data set [3] (setting [9]) was “no significant differences”. In addition, in [4] (Morris water maze latency and target quadrant time), the “learning and memory after severe TBI (FIG. 4)” value was “significantly improved learning and memory”. Also, the “MWM learning compared to un-injured sham controls” value in [4] (administered 8 hours after TBI, any of the training days) is given as “not significantly different from the un-injured sham control animals”. Also, in data set [4] (setting [10]), the “MWM probe trial compared to un-injured sham controls” value was “did not differ from un-injured sham controls” and the “MWM probe trial, time spent searching the target quadrant” value is “approximately 28%”. Moreover, the α-1 adrenergic antagonism result in [5] is given as “potent α-1 adrenergic antagonist”. Also, the α-1 receptors recovered in the data set with α-1 receptors is recorded as 50%. Moreover, the “time to peak effect of receptor antagonism” value in data set [6] is recorded as “approximately 1 hour”. Further, in [7], the side effects entry is on record as “minimal”. The “inhibition of CaM/CaMKII activity” value at calmodulin (CaM)/CaMKII is “potent inhibitor”. Also, the “CCL2 expression in cortical tissue after severe TBI” value with CCL2 is recorded as “no significant increase; also recorded: did not differ from uninjured controls”. Further, the “IL-1β expression in cortical tissue after severe TBI” value in the data set with IL-1β is “no significant increase; also recorded: did not differ from uninjured controls; also recorded: did not have a significant increase”. Besides, in the data set on MyD88, the “MyD88 expression in cortical tissue after severe TBI” value is “no significant increase; also recorded: did not differ from uninjured controls; also recorded: equivalent to uninjured controls”.
